Results published in patent US20260235580A1, “P21-ACTIVATED KINASE 4 INHIBITION AND E-CADHERIN […] AND SCREENING METHOD THEREFOR” (priority 2023, published 2026).
Peptide text beside a SMILES is read from it. * marks the point of attachment. Cbz = O=C(OCc1ccccc1)*

Tests used:
Type in all cases: cell-based
E-cadherin [1] = experiment: MG132 treatment of PANC-1 cells stably expressing shCTRL or shPAK4, western blot for E-cadherin (normalized by Vinculin); settings: specific concentrations of MG132 for 24 hours
Description: (§1) Experiment Method: PANC-1 cells were treated with 20 μg/mL cycloheximide (CHX), harvested at designated time points, and detected by western blot for E-cadherin, ZEB1, and Vinculin antibodies (left side of FIG. 5A). Quantitative evaluation of E-cadherin and ZEB1 protein levels was performed (normalized by Vinculin, right side of FIG. 5A). SU.86.86 and PANC-1 cells were cultured overnight in 1% P/S/10% FBS/DMEM, then converted to DMEM without Ca2+, and cultured for a specific time. E-cadherin, ZEB1, and Vinculin were detected by western blot (top side of FIG. 5B). E-cadherin and ZEB1 protein levels were quantitatively assessed (normalized by Vinculin, bottom side of FIG. 5B). PANC-1 cells stably expressing shCTRL or shPAK4 were treated with specific concentrations of MG132 for 24 hours and then detected by western blot for E-cadherin, ZEB1, and Vinculin antibodies (left side of FIG. 5C). E-cadherin and ZEB1 protein levels were quantitatively assessed (normalized by Vinculin, right side of FIG. 5C), After PANC-1 cells stably expressing shCTRL or shPAK4 were cultured in a serum-free medium for a certain period of time, activated Cdc42 and Rac1 interacting with GST-PBD-agarose were harvested from whole cell proteins. The activity of Cdc42 and Rac1 was detected by western blot (FIG. 5D). […]

ZEB1 = experiment: Cycloheximide treatment of PANC-1 shCTRL/shPAK4 cells, western blot for ZEB1 (normalized by Vinculin); settings: 20 μg/mL cycloheximide
Description: as §1

E-cadherin [2] = experiment: Cycloheximide treatment of PANC-1 shCTRL/shPAK4 cells, western blot for E-cadherin (normalized by Vinculin); settings: 20 μg/mL cycloheximide
Description: as §1

[3] = PANC-1 PAK4 knockdown (shPAK4) cells
[4] = PANC-1 shCTRL cells, harvested at designated time points

SMILES	amount of protein of E-cadherin (E-cadherin [1]; [3])	amount of protein of E-cadherin (E-cadherin [1]; PANC-1 shCTRL cells)	ZEB1 expression (ZEB1; [3])	ZEB1 production (ZEB1; [4])	E-cadherin expression (E-cadherin [2]; [3])	E-cadherin production (E-cadherin [2]; [4])
CC(C)C[C@@H](C=O)NC(=O)[C@H](CC(C)C)NC(=O)[C@H](CC(C)C)NC(=O)OCc1ccccc1 [MG132] (Cbz-Leu-Leu-Leu-aldehyde)	such a pattern was not observed	decreased in a concentration-dependent manner	–	–	–	–
C[C@@H]1C[C@@H]([C@H](O)CC2CC(=O)NC(=O)C2)C(=O)[C@@H](C)C1 [cyclohexamide, cycloheximide]	–	–	significantly reduced	inhibited	remained the same	inhibited
